From ChEMBL document CHEMBL1201862, “PubChem BioAssay data set” (2004)
Activity calls are given as the source filed them.

Columns and labels:
[1] = biological target: T1, Sentrin-specific protease 6 (Homo sapiens, UniProt Q9GZR1); format: functional;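 also: Luminescence-based dose-response confirmatory assay of SENP6 inhibition, following up an ultra-high-throughput screen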
T1 sequence (Q9GZR1 whole entry): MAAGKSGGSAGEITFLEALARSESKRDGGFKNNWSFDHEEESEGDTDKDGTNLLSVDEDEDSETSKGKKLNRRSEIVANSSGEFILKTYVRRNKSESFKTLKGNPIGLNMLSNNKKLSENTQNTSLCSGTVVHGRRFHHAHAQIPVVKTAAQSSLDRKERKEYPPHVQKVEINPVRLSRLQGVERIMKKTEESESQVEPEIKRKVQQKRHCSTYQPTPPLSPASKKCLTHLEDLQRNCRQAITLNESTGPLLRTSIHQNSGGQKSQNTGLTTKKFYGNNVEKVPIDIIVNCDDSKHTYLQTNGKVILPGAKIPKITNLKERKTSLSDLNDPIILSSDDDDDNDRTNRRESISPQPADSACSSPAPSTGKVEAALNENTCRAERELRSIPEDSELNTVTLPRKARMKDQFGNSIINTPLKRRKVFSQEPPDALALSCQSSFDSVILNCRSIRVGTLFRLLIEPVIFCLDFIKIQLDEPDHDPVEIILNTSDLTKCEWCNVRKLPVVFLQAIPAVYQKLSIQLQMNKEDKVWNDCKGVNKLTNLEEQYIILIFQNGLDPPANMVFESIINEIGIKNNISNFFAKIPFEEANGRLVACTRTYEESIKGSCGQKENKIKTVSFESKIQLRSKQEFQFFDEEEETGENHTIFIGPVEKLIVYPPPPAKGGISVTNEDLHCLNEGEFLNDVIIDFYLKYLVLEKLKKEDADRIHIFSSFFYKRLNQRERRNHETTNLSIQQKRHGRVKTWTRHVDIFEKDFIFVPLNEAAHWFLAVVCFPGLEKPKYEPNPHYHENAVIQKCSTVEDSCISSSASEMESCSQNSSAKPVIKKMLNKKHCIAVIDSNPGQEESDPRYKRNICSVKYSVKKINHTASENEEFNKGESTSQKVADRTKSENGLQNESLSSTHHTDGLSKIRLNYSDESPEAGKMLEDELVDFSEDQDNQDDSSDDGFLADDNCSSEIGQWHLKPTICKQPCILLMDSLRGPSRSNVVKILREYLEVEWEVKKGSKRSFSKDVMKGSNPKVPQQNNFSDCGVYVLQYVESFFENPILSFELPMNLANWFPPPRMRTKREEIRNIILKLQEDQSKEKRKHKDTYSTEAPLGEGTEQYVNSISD

[2] = biological target: T2, Sentrin-specific protease 7 (Homo sapiens, UniProt Q9BQF6); format: functional;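 also: Luminescence-based dose-response confirmation of ultra-high-throughput screening hits, measuring inhibition of SENP7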
T2 sequence (Q9BQF6 whole entry): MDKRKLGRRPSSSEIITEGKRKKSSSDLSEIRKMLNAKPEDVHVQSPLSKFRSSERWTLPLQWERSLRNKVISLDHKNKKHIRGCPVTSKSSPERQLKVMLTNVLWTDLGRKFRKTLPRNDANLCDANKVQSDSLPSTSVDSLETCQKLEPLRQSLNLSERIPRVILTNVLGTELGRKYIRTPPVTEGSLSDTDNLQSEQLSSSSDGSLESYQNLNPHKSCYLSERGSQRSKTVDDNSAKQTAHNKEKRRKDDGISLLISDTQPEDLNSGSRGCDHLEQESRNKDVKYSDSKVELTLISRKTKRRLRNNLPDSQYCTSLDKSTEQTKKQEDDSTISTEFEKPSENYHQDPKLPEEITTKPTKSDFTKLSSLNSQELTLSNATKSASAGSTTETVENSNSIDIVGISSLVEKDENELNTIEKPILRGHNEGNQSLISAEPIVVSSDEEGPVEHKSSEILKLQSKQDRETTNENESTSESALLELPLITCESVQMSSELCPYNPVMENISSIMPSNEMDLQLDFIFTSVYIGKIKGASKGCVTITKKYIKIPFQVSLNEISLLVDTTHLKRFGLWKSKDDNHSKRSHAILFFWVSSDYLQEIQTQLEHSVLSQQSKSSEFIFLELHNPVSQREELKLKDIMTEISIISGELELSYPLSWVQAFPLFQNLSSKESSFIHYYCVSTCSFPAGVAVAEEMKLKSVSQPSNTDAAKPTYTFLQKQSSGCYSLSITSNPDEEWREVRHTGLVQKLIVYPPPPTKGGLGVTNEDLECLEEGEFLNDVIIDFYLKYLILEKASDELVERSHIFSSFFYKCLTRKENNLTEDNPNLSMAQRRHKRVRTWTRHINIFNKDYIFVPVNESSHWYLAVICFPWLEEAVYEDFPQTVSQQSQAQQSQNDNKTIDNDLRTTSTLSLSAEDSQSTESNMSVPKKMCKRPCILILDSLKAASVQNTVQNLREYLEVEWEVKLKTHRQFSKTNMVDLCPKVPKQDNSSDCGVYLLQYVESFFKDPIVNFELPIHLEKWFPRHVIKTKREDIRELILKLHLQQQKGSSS

Caspase-3 = biological target: T3, Caspase-3 (Homo sapiens, UniProt P42574); format: functional;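 also: Dose-response selectivity test against caspase-3 for candidate inhibitors of sentrin-specific proteases (SENPs)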
T3 sequence (P42574 whole entry): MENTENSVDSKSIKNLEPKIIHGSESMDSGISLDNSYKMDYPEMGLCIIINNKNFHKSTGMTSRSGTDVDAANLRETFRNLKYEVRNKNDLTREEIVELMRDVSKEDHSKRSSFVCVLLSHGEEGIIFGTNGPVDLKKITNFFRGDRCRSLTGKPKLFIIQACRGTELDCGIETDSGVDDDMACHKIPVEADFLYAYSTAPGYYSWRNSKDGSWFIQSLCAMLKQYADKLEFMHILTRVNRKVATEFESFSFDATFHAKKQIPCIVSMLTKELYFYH

[3] = biological target: T4, Sentrin-specific protease 8 (Homo sapiens, UniProt Q96LD8); format: functional;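 also: luminescence read-out of SENP8 inhibition, dose-response confirmation following an ultra-high-throughput screen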
T4 sequence (Q96LD8 whole entry): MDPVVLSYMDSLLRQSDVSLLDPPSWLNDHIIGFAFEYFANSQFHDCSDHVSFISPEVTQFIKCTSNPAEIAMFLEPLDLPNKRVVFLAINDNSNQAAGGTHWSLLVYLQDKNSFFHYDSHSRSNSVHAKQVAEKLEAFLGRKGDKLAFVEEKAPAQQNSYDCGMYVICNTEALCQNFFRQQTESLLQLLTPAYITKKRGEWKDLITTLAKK

HEK293 = test: inhibitors of LMP1-driven NF-kB reporter, dose response, cell-based, HEK293, luciferase, cherry-pick (AID 588343); format: functional; conditions: Homo sapiens
[4] = biological target: Photoreceptor-specific nuclear receptor (Homo sapiens, UniProt Q9Y5X4); format: functional, cell-based;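 also: CHO-S cells with Gal4-NCOR and VP16-NR2E3 two-hybrid luciferase reporter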
[5] = HepG2 cell cytotoxicity, dose response, cytotoxicity control, cherry-picked samples (AID 1159577); format: functional, cell-based
[6] = P. falciparum Dd2 growth inhibitors, dose response, SYBR Green, cherry-picked samples (AID 1159567); format: functional, cell-based
[7] = MC4R antagonists, dose response, counter-screen for LGR2 antagonist project, cell-based, plate reader, cherry pick (AID 743444); format: functional;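 also: transfected HEK 293 cells stimulated with alpha-MSH peptide; potency of inhibitors of the alpha-MSH evoked signal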
[8] = A549 cell cytotoxicity, dose response, cytotoxicity control, plate reader, cherry-pick, antagonist series (AID 743412); format: functional, cell-based
[9] = HepG2 cell cytotoxicity, dose response, cytotoxicity control, plate reader, cherry-pick, antagonist series (AID 743416); format: functional, cell-based
[10] = HEK293 cell cytotoxicity, dose response, cytotoxicity control, plate reader, cherry-picked samples (AID 743446); format: functional, cell-based
[11] = LGR2 antagonists, dose response, cell-based, HEK293, CRE-luciferase reporter, cherry pick, set 2 (AID 743343); format: functional;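 also: transfected cells were stimulated with diluted bursicon conditioned medium after compound addition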
SN12K1 = test: cells; format: functional; conditions: Homo sapiens
P388 = test: cells; format: functional; conditions: Mus musculus
P388/ADR = test: cells; format: functional; conditions: Mus musculus
[12] = inhibitors of clade B AD8 Env fusion, dose response, cell-based, cherry-pick (AID 652062); format: functional;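 also: luciferase signal from cell-cell fusion driven by HIV-1 clade B AD8 Env; potency is for inhibitors of fusion seen as a drop in luminescence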
[13] = off-target signal loss in HeLa-CEM21 co-culture – HeLa F-luc CTL cells, cherry-picked, counter-screen for HIV-1 Env fusion inhibitor project, dose response (AID 652040); format: functional, cell-based;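 also: potency for signal decrease marking cytotoxic or nonspecific inhibition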
[14] = ZM109 Env clade C HIV-1 fusion inhibitors, dose response, HeLa effector, CEM target cells, luciferase, cherry-pick (AID 652058); format: functional, cell-based
[15] = CEM21 lymphoblast cell cytotoxicity, dose response, cytotoxicity control for viral fusion inhibitor project, CellTiter-Glo luminescence, cherry-picked (AID 652042); format: functional, cell-based;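 also: potency for signal decrease meaning cytotoxicity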
[16] = inhibitors of HIV Env-driven cell fusion, dose response, cherry-pick (AID 652057); format: functional, cell-based
[17] = THP-1 cell cytotoxicity, dose response, cytotoxicity control for Vif-APOBEC3G degradation inhibitor project, THP-1 cells (AID 1117359); format: functional; conditions: Human immunodeficiency virus 1, THP-1
Paired box protein Pax-8 = Paired box protein Pax-8 (Homo sapiens, UniProt Q06710); test: inhibitors of PAX8-driven TPO luciferase reporter, dose response, RMG-I cells, cherry-pick (AID 687027); format: functional, cell-based;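 also: luciferase reporter driven by Pax8 target thyroperoxidase promoter measured by SteadyGlo luminescence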
[18] = Luminescence Cell-Based Dose Retest to Confirm Inhibitors of Cancer Stem Cells. [Related pubchem assays (depositor defined):AID2717, AID2721]; format: functional; conditions: Homo sapiens

Chain of Photoreceptor-specific nuclear receptor (Q9Y5X4 whole entry, the tested form may be a part): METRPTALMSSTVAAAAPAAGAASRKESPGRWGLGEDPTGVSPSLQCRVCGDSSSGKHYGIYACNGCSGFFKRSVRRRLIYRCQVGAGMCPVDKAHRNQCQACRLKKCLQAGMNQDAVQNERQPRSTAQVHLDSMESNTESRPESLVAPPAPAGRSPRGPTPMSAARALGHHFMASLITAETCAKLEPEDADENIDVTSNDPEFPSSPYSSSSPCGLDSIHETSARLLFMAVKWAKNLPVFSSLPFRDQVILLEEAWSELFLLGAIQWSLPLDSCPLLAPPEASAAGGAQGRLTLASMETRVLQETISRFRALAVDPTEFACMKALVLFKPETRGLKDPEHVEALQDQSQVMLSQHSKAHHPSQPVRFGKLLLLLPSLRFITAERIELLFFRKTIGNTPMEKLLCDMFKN
Chain of Paired box protein Pax-8 (Q06710 whole entry): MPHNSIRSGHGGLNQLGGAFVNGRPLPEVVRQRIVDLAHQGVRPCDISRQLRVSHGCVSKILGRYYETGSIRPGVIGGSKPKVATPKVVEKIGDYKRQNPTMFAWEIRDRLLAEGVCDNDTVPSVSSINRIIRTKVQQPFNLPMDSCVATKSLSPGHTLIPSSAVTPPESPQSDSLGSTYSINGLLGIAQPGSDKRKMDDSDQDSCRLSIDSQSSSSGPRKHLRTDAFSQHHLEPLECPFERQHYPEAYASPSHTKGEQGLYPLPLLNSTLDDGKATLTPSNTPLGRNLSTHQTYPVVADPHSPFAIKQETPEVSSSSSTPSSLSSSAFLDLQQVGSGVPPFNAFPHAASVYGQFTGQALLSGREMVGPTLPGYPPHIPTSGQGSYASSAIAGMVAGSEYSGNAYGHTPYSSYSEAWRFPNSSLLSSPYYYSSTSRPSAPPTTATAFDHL

O=C(NCCSc1ccccc1)c1ccc(Br)cc1
IC50 [1]: 22.4 µM (active)
IC50 [2]: 7.71 µM (active)
IC50 (Caspase-3): 17.7 µM (active)
IC50 [3]: 26.8 µM (active)

COc1ccc(/C=N/N2CCN(c3ccccc3OC)CC2)cc1Br
IC50 [1]: 25 µM (active)
IC50 [2]: 7.1 µM (active)
IC50 (Caspase-3): 21.1 µM (active)
IC50 [3]: 54.9 µM (active)

COCCn1c(C)cc(C(=O)COc2ccc(C)nc2[N+](=O)[O-])c1C
AC50 (HEK293): 9.91 µM (active)
IC50 [4]: 5.55 µM (active)

O=S(=O)(c1ccc(F)cc1)N1CCCCN2[C@H](CO)[C@H](c3ccc(-c4ccccc4F)cc3)[C@H]2C1
AC50 [5]: 11 µM (active)
AC50 [6]: 1.97 µM (active)

O=C(c1cc(-c2ccccc2Cl)nc2ccc(Br)cc12)N1CCN(c2ccccn2)CC1
AC50 [7]: 29.2 µM (active)
AC50 [8]: 34.5 µM (active)
AC50 [9]: 50.3 µM (active)
AC50 [10]: 22.8 µM (active)
AC50 [11]: 28.3 µM (active)

C[C@H](CO)N1C[C@H](C)[C@@H](CN(C)Cc2ccccc2)Oc2ccc(NC(=O)Nc3ccc(F)cc3)cc2CC1=O
AC50 [5]: > 39 µM (inactive)
AC50 [6]: 4.02 µM (active)

CC(C)CC/N=c1/cc2n(-c3ccc(Cl)cc3)c3ccccc3nc-2cc1Nc1ccc(Cl)cc1
GI50 (SN12K1): 6.4 µM (inactive)
GI50 (P388): 2.82 µM (inactive)
GI50 (P388/ADR): 2.19 µM (inactive)

CCCCCCCCCCNC1CC(OC2CC(O)(C(O)CO)Cc3c(O)c4c(c(O)c32)C(=O)c2c(OC)cccc2C4=O)OC(C)C1O (centres undefined)
GI50 (SN12K1): 1.25 µM (inactive)
GI50 (P388): 0.168 µM (active)
GI50 (P388/ADR): 1.52 µM (inactive)

O=C(O)CCCCCCC[C@@H]1S[C@H]1CCCCCCO
GI50 (SN12K1): > 100 µM (inactive)
GI50 (P388): > 100 µM (inactive)
GI50 (P388/ADR): > 100 µM (inactive)

CCCCCCCCN1C(=O)[C@H](CC(=O)NCCCC)C[C@@]2(C(=O)OCC)CCCC=C12
AC50 [12]: 16.3 µM (active)
AC50 [13]: 66.4 µM (active)
AC50 [14]: 23.2 µM (active)
AC50 [15]: 37.5 µM (active)
AC50 [16]: 7.2 µM (active)

O=C1/C(=C/c2ccco2)SC(=S)N1C1CCS(=O)(=O)C1 (centres undefined)
CC50 [17]: > 40 µM (active)

CCCCCCCCCCCCCCCC(=O)OCC1OC(n2ccc(N)nc2=O)C(O)C1O (centres undefined)
AC50 [12]: 0.922 µM (active)
AC50 [13]: 0.44 µM (active)
AC50 [14]: < 0.26 µM (active)
AC50 [15]: 24 µM (active)
AC50 [16]: 0.557 µM (active)

CCCCCc1ccc(-c2ccc(OC)cc2)nc1
IC50 [1]: 41.8 µM (active)
IC50 [2]: 9.32 µM (active)
IC50 (Caspase-3): 37.2 µM (active)
IC50 [3]: 80.5 µM (active)

O=C(Nc1ccc(C2CC2(Cl)Cl)cc1)c1cccc([N+](=O)[O-])c1 (centres undefined)
IC50 [1]: 7.84 µM (active)
IC50 [2]: 5.14 µM (active)
IC50 (Caspase-3): 28.8 µM (active)
IC50 [3]: 29.5 µM (active)

COc1cccc(CN2CCC2(C)C(=O)Nc2cccc(Oc3ccccc3)c2)c1OC (centres undefined)
AC50 [12]: 20.4 µM (active)
AC50 [13]: > 70 µM (inactive)
AC50 [15]: 61.8 µM (active)
AC50 [16]: 3.47 µM (active)

C[C@H]1CN([C@@H](C)CO)C(=O)Cc2cc(NC(=O)Nc3ccc(F)cc3)ccc2O[C@H]1CN(C)CC1CCCCC1
AC50 [7]: 55.8 µM (active)
AC50 [8]: 9.61 µM (active)
AC50 [9]: 16.6 µM (active)
AC50 [10]: 15.4 µM (active)

Cc1cccc(-c2ccc([C@H]3[C@H]4CN(CCC(F)(F)F)CCCCN4[C@H]3CO)cc2)c1
AC50 [5]: 9.1 µM (active)
AC50 [6]: 1.08 µM (active)

Nc1nc(N)nc(-c2ccccc2NS(=O)(=O)c2ccc([N+](=O)[O-])cc2)n1
GI50 (SN12K1): > 56.5 µM (inactive)
GI50 (P388): 57.1 µM (inactive)
GI50 (P388/ADR): 38.5 µM (inactive)

Cn1nnnc1Sc1ncnc2scc(-c3cccc(Br)c3)c12
AC50 [7]: 6.1 µM (active)
AC50 [8]: 9.25 µM (active)
AC50 [10]: 11.1 µM (active)
AC50 (Paired box protein Pax-8): 2.75 µM (active)
AC50 [11]: 5.22 µM (active)
AC50 [18]: 1.86 µM (active)

COc1c2ccoc2c(S(=O)(=O)Nc2ccc(Cl)cc2)c2oc(C)cc(=O)c12
GI50 (SN12K1): > 100 µM (inactive)
GI50 (P388): 69.3 µM (inactive)
GI50 (P388/ADR): 72.4 µM (inactive)
